Reference: EP1247803A2, “Indolinone compounds suitable for modulation of protein kinases” (Sugen, Inc., priority 1996, dated 1998)

Legend:
PDGF-R = PDGF-R (Homo sapiens, UniProt P09619); assay: PDGF-R ELISA; assay type: cell-based
Description: A PDGF-R ELISA is described in International Patent Publication No. WO 96/40116, published December 19, 1996 by Tang et al.

EGFR = target: T1, EGFR (Homo sapiens, UniProt P00533); assay: EGFR ELISA assay (in vitro kinase activity, EGFR captured from A431 cell lysate); assay type: biochemical; design: concentration or dose not given beside the values
T1 construct: Add 7 ug A431 cell lysate per well (EGFR source); endogenous in cells; host or cells: A431
Description: To provide a consistent method for measuring the in vitro kinase activity of the EGFR in an Enzyme-linked immunosorbent assay (Elisa).
Scope. The following protocol describes the procedures used to analyze protein tyrosine kinase activity on the EGFR in an Elisa. The procedure also describes the protocol for the initial screening of drugs for inhibition or activation of protein tyrosine kinase activity.
Reagents and Supplies. • 1. […] 05-101 monoclonal anti-EGFR antibody (commercially available from UB1) -80° C, 1 ml aliquots • 3. […] TBST Buffer Formulation: 50 mM Tris pH 7.2 150 mM NaCl 0.1% Triton X-100 • 5. Blocking Buffer Formulation: 5% Carnation Instant Milk in PBS • 6. A431 cell lysate A431 cells are available from a variety of commercial sources and may be used lysed using conventional methods known to those skilled in the art or as described for lysis of the 3T3 cells in the EGF cellular assay described herein. -80° C, 1 ml aliquots • 7. TBS Buffer Formulation: 50 mM Tris pH 7.2 150 mM NaCl • 8. […] NUNC 96-well V bottom polypropylene plates Applied Scientific Catalog # AS-72092 • 11. EDTA Formulation: 200 mM EDTA pH 8.0 • 12. […] Goat anti-rabbit IgG peroxidase conjugate Biosource Catalog # ALI0404 • 14. ABTS Solution Formulation: 100 mM Citric Acid (anhydrous) 250 mM Na2HPO4 pH 4.0 0.5 mg/ml ABTS (2,2'-azino-bis(3-ethylbenzthiazoline-6-sulfonic acid) (Sigma Catalog # A-1888) Keep solution in dark at 4 C until ready to use • 15. Hydrogen peroxide 30% solution Fisher Catalog # H325 Store in the dark at 4 C until ready to use • 16. ABTS/H2O2 Formulation: 15 mls ABTS solution 2 ul H2O2 Prepare 5 minutes before use and room temperature • 17. 0.2 M HCL stock in H2O Procedure. • 1. Coat Corning 96-well elisa plates with 0.5 ug per well 05-101 antibody. Bring final volume to 100 ul per well with PBS. Coat plates overnight at 4° C. • 2. Remove unbound 05-101 from wells by inverting plate to remove liquid. Wash 1x with distilled H2O by filling wells Pat the plate on a paper towel to remove excess liquid. • 3. Block plates with 5% milk in PBS. 150 ul per well. Incubate plate 30 minutes while shaking on a microtiter plate shaker. • 4. Wash plate 3x with dionized water, then once with TBST • 5. Add 7 ug A431 cell lysate per well (EGFR source). Add PBS to final volume of 100 ul per well Incubate 30 minutes while shaking. • 6. Wash as described in step 4. • 7. At this point, drugs or extracts are added to the wells. Dilute drugs/extracts 1:100 (unless specified otherwise) in TBS + 10% DMSO in 96-well polypropylene plates. Add 120 ul TBS to ELISA plate containing captured EGFR. Add 13.5 ul diluted drugs/extracts to ELISA plate. […] Incubate plate 30 minutes while shaking. • 8. […] (150 ul final volume in well with 3 uM ATP/5 mM MnCl2 final concentration in well.) Incubate 5 minutes while shaking vigorously. *NOTE: It is critical that ATP/MnCl2 phosphorylates the receptor for 5 minutes only. It is best to add the ATP/MnCl2 with an 12 channel pipettor 1 row at a time leaving 20 seconds between each row so that the reaction may be stopped with EDTA exactly 5 minutes later (this depends on the number of plates being phosphorylated in one batch). Shake between each addition. • 9. After 5 minutes, to stop reaction, add 16.5 ul of 200 mM EDTA pH 8.0 for 20 mM final in well, shaking continuously between each addition. This is done using the same timing method as above. After last row has received EDTA, shake plate an additional minute. • 10. Wash 4x with deionized water, twice with TBST. • 11. Add rabbit polyclonal anti-phosphotyrosine serum. Dilute 1:3000 in TBST. Add 100 ul per well. Incubate 30-45 minutes while shaking. • 12. Wash as described above in step 4. • 13. Add BioSource anti-rabbit peroxidase conjugate antibody. Dilute 1:2000 in TBST. Add 100 ul per well. Incubate 30 minutes while shaking. • 14. Wash as described in step 4. • 15. Add 100 ul of ABTS/H2O2 solution to well. Incubate 5 to 10 minutes while shaking. Remove bubbles • 16. […]

MET = MET biochemical kinase assay; design: species or system human; concentration or dose not given beside the values
Description: A met biochemical kinase assay may be performed for met generally as described above for other kinases by substituting that or the other kinases. In particular, ELISA plates are coated with goat anti-rabbit Fc antibodies, which are used to capture commercially available (from Santa Cruz Biotechnology) rabbit polyclonal antibodies to the cytoplasmic domain of human MET. […] The chimeric receptors, or MET, from these lysates are captured on the antibody coated plates. After washing away extraneous proteins, test compounds are added and an in vitro kinase assay is performed by addition of an appropriate kinase buffer (containing ATP, divalent metal ions, etc.). Incorporation of phosphate into the captured receptors is detected with an anti-phosphotyrosine antibody conjugate with horse radish peroxidase using TMB as a substrate for colorimetric detection.

Sequence of PDGF-R (P09619 33-1106, species assumed): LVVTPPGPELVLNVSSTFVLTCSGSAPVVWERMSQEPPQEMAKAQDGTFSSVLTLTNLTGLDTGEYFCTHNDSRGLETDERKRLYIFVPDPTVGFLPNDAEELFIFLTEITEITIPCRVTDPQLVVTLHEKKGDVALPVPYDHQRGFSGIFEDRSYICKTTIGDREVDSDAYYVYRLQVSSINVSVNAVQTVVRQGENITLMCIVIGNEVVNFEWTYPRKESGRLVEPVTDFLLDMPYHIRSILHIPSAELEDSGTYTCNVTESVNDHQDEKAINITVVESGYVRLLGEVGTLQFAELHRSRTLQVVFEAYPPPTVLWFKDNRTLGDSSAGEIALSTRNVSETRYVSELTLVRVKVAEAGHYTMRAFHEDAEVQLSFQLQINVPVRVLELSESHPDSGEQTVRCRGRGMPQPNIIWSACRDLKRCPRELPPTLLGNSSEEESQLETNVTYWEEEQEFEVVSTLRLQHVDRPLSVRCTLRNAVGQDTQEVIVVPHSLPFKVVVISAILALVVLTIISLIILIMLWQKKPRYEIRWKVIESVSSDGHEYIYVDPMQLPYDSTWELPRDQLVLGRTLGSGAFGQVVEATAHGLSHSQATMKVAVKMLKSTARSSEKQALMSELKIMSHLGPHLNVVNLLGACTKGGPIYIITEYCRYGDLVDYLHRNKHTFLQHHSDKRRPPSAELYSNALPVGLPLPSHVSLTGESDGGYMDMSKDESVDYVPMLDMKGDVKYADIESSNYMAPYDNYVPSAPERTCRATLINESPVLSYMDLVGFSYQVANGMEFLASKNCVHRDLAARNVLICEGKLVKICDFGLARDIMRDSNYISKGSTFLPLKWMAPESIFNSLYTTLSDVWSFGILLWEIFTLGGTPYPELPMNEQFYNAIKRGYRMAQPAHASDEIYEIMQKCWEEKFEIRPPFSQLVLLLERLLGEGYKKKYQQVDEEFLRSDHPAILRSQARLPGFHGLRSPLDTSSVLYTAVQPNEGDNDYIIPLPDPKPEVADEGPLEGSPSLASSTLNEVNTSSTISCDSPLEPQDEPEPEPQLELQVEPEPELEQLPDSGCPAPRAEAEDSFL
T1 sequence (P00533 25-1210): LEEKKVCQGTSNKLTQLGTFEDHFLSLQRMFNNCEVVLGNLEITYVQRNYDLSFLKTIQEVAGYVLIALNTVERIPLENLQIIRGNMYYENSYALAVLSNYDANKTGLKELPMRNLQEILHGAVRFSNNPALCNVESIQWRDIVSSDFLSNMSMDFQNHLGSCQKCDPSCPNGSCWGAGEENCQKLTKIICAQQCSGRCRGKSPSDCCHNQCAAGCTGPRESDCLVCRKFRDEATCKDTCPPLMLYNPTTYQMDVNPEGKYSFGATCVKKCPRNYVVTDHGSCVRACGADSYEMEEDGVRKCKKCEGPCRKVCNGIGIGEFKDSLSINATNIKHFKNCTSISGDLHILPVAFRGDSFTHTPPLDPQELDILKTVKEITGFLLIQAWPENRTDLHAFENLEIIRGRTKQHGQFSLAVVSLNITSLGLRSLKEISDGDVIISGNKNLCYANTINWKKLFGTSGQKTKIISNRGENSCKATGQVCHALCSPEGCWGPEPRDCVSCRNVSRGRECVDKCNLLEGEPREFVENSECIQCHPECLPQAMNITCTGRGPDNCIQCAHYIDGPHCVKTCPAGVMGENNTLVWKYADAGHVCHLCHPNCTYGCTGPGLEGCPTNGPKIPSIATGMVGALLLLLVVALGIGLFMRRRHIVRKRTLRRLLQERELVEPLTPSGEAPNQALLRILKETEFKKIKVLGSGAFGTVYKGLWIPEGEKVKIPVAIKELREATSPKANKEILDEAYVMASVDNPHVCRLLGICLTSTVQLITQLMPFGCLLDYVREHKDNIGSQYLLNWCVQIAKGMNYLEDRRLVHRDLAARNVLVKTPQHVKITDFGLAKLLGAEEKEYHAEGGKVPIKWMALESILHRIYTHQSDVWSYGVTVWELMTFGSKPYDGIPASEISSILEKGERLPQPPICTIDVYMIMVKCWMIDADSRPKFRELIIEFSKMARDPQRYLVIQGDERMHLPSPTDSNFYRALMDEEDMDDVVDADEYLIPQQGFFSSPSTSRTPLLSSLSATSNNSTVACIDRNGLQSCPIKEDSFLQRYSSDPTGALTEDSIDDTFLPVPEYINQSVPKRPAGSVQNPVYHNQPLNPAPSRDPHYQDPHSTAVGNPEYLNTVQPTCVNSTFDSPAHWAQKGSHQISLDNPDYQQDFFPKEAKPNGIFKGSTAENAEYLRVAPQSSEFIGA

SMILES	PDGF Kinase %Inhibition (PDGF-R)	Biochem EGFR %Inhibition (EGFR)	Met Kinase % Inhibition (MET)
CC(C)c1ccc2occ(C=C3C(=O)Nc4ccc(CCCl)cc43)c(=O)c2c1 [10731/G05]	8.0%	18.5%	72.4%
CC(C)(C)c1cc(C=C2C(=O)Nc3ccc(I)cc32)cc(Cl)c1OCc1ccccc1 [10732/B10]	0.7%	0.6%	51.5%
CNS(=O)(=O)c1ccc2c(c1)C(=Cc1c[nH]c(=O)[nH]c1=O)C(=O)N2 [10731/D08]	-8.7%	16.8%	44.2%
COc1c(C(C)C)cc(C=C2C(=O)Nc3c(Br)cc(Br)cc32)cc1C(C)C [10732/A03]	-3.8%	0.8%	37.4%
COc1c(Cl)cc(C=C2C(=O)Nc3ccc(Br)c(C)c32)cc1C(C)(C)C [10732/C09]	15.4%	-3.9%	37.9%
CN1C(=O)C(=C2C(=O)Nc3ccc(CCCl)cc32)c2ccccc21 [10731/G10]	5.6%	5.5%	10.3%
Cc1c(Br)ccc2c1C(=Cc1ccc(OCc3ccccc3)c(C(C)(C)C)c1)C(=O)N2 [10732/C06]	5.3%	-43.2%	21.6%
COc1ccc(C=C2C(=O)Nc3c(Br)cc(Br)cc32)cc1C(C)(C)C [10732/A05]	-12.9%	4.6%	20.5%
COc1ccc(C=C2C(=O)Nc3ccc(Br)c(C)c32)cc1C(C)(C)C [10732/C05]	-17.0%	-22.8%	18.5%
Cc1ccc2occ(C=C3C(=O)Nc4ccc(S(=O)(=O)N5CCOCC5)cc43)c(=O)c2c1 [10731/F06]	-23.4%	7.2%	20.9%
Cc1ccc2occ(C=C3C(=O)Nc4ccc(CCCl)cc43)c(=O)c2c1 [10731/G06]	-0.6%	2.3%	33.3%
CC(C)c1cc(C=C2C(=O)Nc3ccc(I)cc32)cc(C(C)C)c1Oc1ccccc1 [10732/B04]	16.9%	-22.1%	79.5%
COc1c(Br)cc(C=C2C(=O)Nc3ccc(I)cc32)cc1C(C)(C)C [10732/B07]	21.4%	15.8%	75.1%
Cc1c(Br)ccc2c1C(=Cc1cc(C(C)C)c(Oc3ccccc3)c(C(C)C)c1)C(=O)N2 [10732/C04]	3.8%	-14.7%	30.6%
CC(C)(C)c1cc(C=C2C(=O)Nc3c(Br)cc(Br)cc32)cc(Br)c1OCc1ccccc1 [10732/A08]	31.0%	12.1%	32.7%
O=C1Nc2c(Br)cc(Br)cc2C1=CC(c1cccs1)C(F)(F)F (stereo not drawn) [10732/A02]	10.8%	5.1%	53.7%
CNS(=O)(=O)c1ccc2c(c1)C(=Cc1cc(Br)c(OC)c(C(C)(C)C)c1)C(=O)N2 [10732/D07]	-3.8%	-19.1%	43.2%
O=C1Nc2ccc(CCCl)cc2C1=Cc1c[nH]c(=O)[nH]c1=O [10731/G08]	-13.9%	13.3%	19.5%
CNS(=O)(=O)c1ccc2c(c1)C(=Cc1cc(C(C)C)c(OC)c(C(C)C)c1)C(=O)N2 [10732/D03]	26.0%	-18.7%	24.9%
